Assay results published in patent US7238701B2, “Substituted tetrahydrobenzothienopyrimidinamine compounds useful for treating hyper-proliferative disorders” (Bayer Pharmaceuticals Corporation, priority 2003, dated 2007).

Assays:
[1] = tested on: BT474 (human breast carcinoma); test: In vitro tumor cell proliferation assay (Cell Titer-Glo luminescent cell viability), BT474 cells; type: cell-based; details: BT-474, 72 hours drug exposure, 10% Fetal Bovine Serum, ATP luminescence readout, read-out: IC50 (50% inhibition of cell proliferation)
From the text: (§1) In vitro Tumor Cell Proliferation Assay
(§2) The tumor cell proliferation assay used to test the compounds of the present invention involves a readout called Cell Titer-Glow® Luminescent Cell Viability Assay developed by Promega (Cunningham, B A “A Growing Issue: Cell Proliferation Assays, Modern kits ease quantification of cell growth” The Scientist 2001, 15(13), 26, and Crouch, S P et al., “The use of ATP bioluminescence as a measure of cell proliferation and cytotoxicity” Journal of Immunological Methods 1993, 160, 81–88), that measures inhibition of cell proliferation. Generation of a luminescent signal corresponds to the amount of ATP present, which is directly proportional to the number of metabolically active (proliferating) cells.
(§3) A431cells (human epidermoid carcinoma, ATCC # HTB-20) and BT474 (human breast carcinoma, ATCC # CRL-1555) were plated at a density of 2.5×10^3 cells/well in 96 well black-clear bottom tissue culture plates in RPMI media with 10% Fetal Bovine Serum and incubated at 37° C. Twenty-four hours later, test compounds are added at a final concentration range from as high 100 μM to as low 64 pM depend on the activities of the tested compounds in serial dilutions at a final DMSO concentration of 0.1%. Cells were incubated for 72 hours at 37° C. in complete growth media after addition of the test compound. After 72 hours of drug exposure, the plates were equilibrated to room temperature for approximately 30 min. Then, using a Promega Cell Titer Glo Luminescent® assay kit, lysis buffer containing 100 microliters of the enzyme luciferase and its substrate, luciferin mixture, was added to each well. The plates were mixed for 2 min on orbital shaker to ensure cell lysis and incubated for 10 min at room temperature to stabilize luminescence signal. The samples were read on VICTOR 2 using Luminescence protocol, and analyzed with Analyze5 software to generate IC50 values.

[2] = tested on: A431cells (human epidermoid carcinoma); test: In vitro tumor cell proliferation assay (Cell Titer-Glo luminescent cell viability), A431 cells; type: cell-based; details: A-431, 72 h, 72 hours drug exposure, 10% Fetal Bovine Serum, ATP luminescence readout, read-out: IC50 (50% inhibition of cell proliferation)
From the text: as §1, §2, §3

With `O=C(O)C1CCc2c(sc3ncnc(Nc4cccc(Br)c4)c23)C1` (stereo not shown) [Example 1, 4-[(3-bromophenyl)amino]-5,6,7,8-tetrahydro[1]benzothieno[2,3-d]pyrimidine-7-carboxylic acid] the IC50 [1] was < 50 µM and the IC50 [2] was < 50 µM.
With `O=C(O)C1CCc2c(sc3ncnc(Nc4ccc(Br)cc4F)c23)C1` (stereo not shown) [Example 2, 4-[(4-bromo-2-fluorophenyl)amino]-5,6,7,8-tetrahydro[1]benzothieno[2,3-d]pyrimidine-7-carboxylic acid] the IC50 [1] was < 5 µM and the IC50 [2] was < 50 µM.
In the case of `O=C(C1CCc2c(sc3ncnc(Nc4ccc(F)c(Cl)c4)c23)C1)N1CCCCC1` (stereo not shown) [Example 3, N-(3-chloro-4-fluorophenyl)-7-(1-piperidinylcarbonyl)-5,6,7,8-tetrahydro[1]benzothieno[2,3-d]pyrimidin-4-amine], the IC50 [1] is reported as < 50 µM and the IC50 [2] is reported as < 50 µM.
For `Fc1ccc(Nc2ncnc3sc4c(c23)CCC(CN2CCCCC2)C4)cc1Cl` (stereo not shown) [Example 4, N-(3-chloro-4-fluorophenyl)-7-(1-piperidinylmethyl)-5,6,7,8-tetrahydro[1]benzothieno[2,3-d]pyrimidin-4-amine], the IC50 [1] was < 5 µM and the IC50 [2] was < 5 µM.
`COCCN(C)C(=O)C1CCc2c(sc3ncnc(Nc4ccc(F)c(Cl)c4)c23)C1` (stereo not shown) [Example 8, 4-[(3-chloro-4-fluorophenyl)amino]-N-(2-methoxyethyl)-N-methyl-5,6,7,8-tetrahydro[1]benzothieno[2,3-d]pyrimidine-7-carboxamide] was tested, and the IC50 [1] was < 50 µM and the IC50 [2] was < 50 µM.
In the case of `Fc1ccc(Nc2ncnc3sc4c(c23)CCC(CN2CCOCC2)C4)cc1Cl` (stereo not shown) [Example 12, N-(3-chloro-4-fluorophenyl)-7-(4-morpholinylmethyl)-5,6,7,8-tetrahydro[1]benzothieno[2,3-d]pyrimidin-4-amine], the IC50 [1] is reported as < 50 µM and the IC50 [2] is reported as < 50 µM.
With `CN1CCN(CC2CCc3c(sc4ncnc(Nc5ccc(F)c(Cl)c5)c34)C2)CC1` (stereo not shown) [Example 15, N-(3-chloro-4-fluorophenyl)-7-[(4-methyl-1-piperazinyl)methyl]-5,6,7,8-tetrahydro[1]benzothieno[2,3-d]pyrimidin-4-amine] the IC50 [1] was < 5 µM and the IC50 [2] was < 5 µM.
`COCCNC(=O)C1CCc2c(sc3ncnc(Nc4ccc(F)c(Cl)c4)c23)C1` (stereo not shown) [Example 16, 4-[(3-chloro-4-fluorophenyl)amino]-N-(2-methoxyethyl)-5,6,7,8-tetrahydro[1]benzothieno[2,3-d]pyrimidine-7-carboxamide] was tested, and the IC50 [1] was < 50 µM and the IC50 [2] was < 50 µM.
`O=C(O)C1CCc2c(sc3ncnc(Nc4ccc(F)c(Cl)c4)c23)C1` (stereo not shown) [Example 20, 4-[(3-chloro-4-fluorophenyl)amino]-5,6,7,8-tetrahydro[1]benzothieno[2,3-d]pyrimidine-7-carboxylic acid] was tested, and the IC50 [1] was < 50 µM and the IC50 [2] was < 50 µM.
With `CN1CCN(CC2CCc3c(sc4ncnc(Nc5ccc(Br)cc5F)c34)C2)CC1` (stereo not shown) [Example 22] the IC50 [1] was < 5 µM and the IC50 [2] was < 5 µM.
For `COCCNC(=O)C1CCc2c(sc3ncnc(Nc4ccc(Br)cc4F)c23)C1` (stereo not shown) [Example 23, 4-[(4-bromo-2-fluorophenyl)amino]-N-(2-methoxyethyl)-5,6,7,8-tetrahydro[1]benzothieno[2,3-d]pyrimidin-7-carboxamide], the IC50 [1] was < 50 µM and the IC50 [2] was < 50 µM.
With `CCOC(=O)C1CCc2c(sc3ncnc(Nc4ccc(F)c(Cl)c4)c23)C1` (stereo not shown) [Example 24, ethyl 4-[(3-chloro-4-fluorophenyl)amino]-5,6,7,8-tetrahydro[1]benzothieno[2,3-d]pyrimidine-7-carboxylate] the IC50 [1] was < 50 µM and the IC50 [2] was < 50 µM.
In the case of `CN1CCN(CC2CCc3c(sc4ncnc(Nc5cccc(Br)c5)c34)C2)CC1` (stereo not shown) [Example 26, N-(3-bromophenyl)-7-[(4-methyl-1-piperazinyl)methyl]-5,6,7,8-tetrahydro[1]benzothieno[2,3-d]pyrimidin-4-amine], the IC50 [2] is reported as < 5 µM.
For `COCCN(C)C(=O)C1CCc2c(sc3ncnc(Nc4cccc(Br)c4)c23)C1` (stereo not shown) [Example 31, 4-[(3-bromophenyl)amino]-N-(2-methoxyethyl)-N-methyl-5,6,7,8-tetrahydro[1]benzothieno[2,3-d]pyrimidine-7-carboxamide], the IC50 [1] was < 50 µM and the IC50 [2] was < 50 µM.
With `CCOC(=O)C1CCc2c(sc3ncnc(Nc4ccc(OCc5ccccc5)cc4)c23)C1` (stereo not shown) [Example 32, Ethyl 4-{[4-(benzyloxy)phenyl]amino}-5,6,7,8-tetrahydro[1]benzothieno[2,3-d]pyrimidine-7-carboxylate] the IC50 [1] was < 50 µM and the IC50 [2] was < 50 µM.
For `COCCN(C)CC1CCc2c(sc3ncnc(Nc4cccc(Br)c4)c23)C1` (stereo not shown) [Example 36, N-(3-bromophenyl)-7-{[(2-methoxyethyl)(methyl)amino]methyl}-5,6,7,8-tetrahydro[1]benzothieno[2,3-d]pyrimidin-4-amine], the IC50 [1] was < 5 µM.
In the case of `CCOC(=O)C1CCc2c(sc3ncnc(Nc4ccc(C)c(O)c4)c23)C1` (stereo not shown) [Example 39, Ethyl 4-[(3-hydroxy-4-methylphenyl)amino]-5,6,7,8-tetrahydro[1]benzothieno[2,3-d]pyrimidine-7-carboxylate], the IC50 [1] is reported as < 5 µM and the IC50 [2] is reported as < 50 µM.
With `CCOC(=O)C1CCc2c(sc3ncnc(Nc4cccc(O)c4)c23)C1` (stereo not shown) [Example 40, Ethyl 4-[(3-hydroxyphenyl)amino]-5,6,7,8-tetrahydro[1]benzothieno[2,3-d]pyrimidine-7-carboxylate] the IC50 [1] was < 50 µM and the IC50 [2] was < 50 µM.
For `CCOC(=O)C1CCc2c(sc3ncnc(Nc4ccc(Cl)cc4F)c23)C1` (stereo not shown) [Example 42, Ethyl 4-[(4-chloro-2-fluorophenyl)amino]-5,6,7,8-tetrahydro[1]benzothieno[2,3-d]pyrimidine-7-carboxylate], the IC50 [1] was < 5 µM and the IC50 [2] was < 50 µM.
In the case of `CN1CCN(C(=O)C2CCc3c(sc4ncnc(Nc5ccc(OCc6ccccc6)cc5)c34)C2)CC1` (stereo not shown) [Example 43, N-[4-(benzyloxy)phenyl]-7-[(4-methyl-1-piperazinyl)carbonyl]-5,6,7,8-tetrahydro[1]benzothieno[2,3-d]pyrimidin-4-amine], the IC50 [1] is reported as < 5 µM.
`Brc1cccc(Nc2ncnc3sc4c(c23)CCC(CCN2CCOCC2)C4)c1` (stereo not shown) [Example 45, N-(3-bromophenyl)-7-[2-(4-morpholinyl)ethyl]-5,6,7,8-tetrahydro[1]benzothieno[2,3-d]pyrimidin-4-amine] was tested, and the IC50 [1] was < 5 µM and the IC50 [2] was < 5 µM.
In the case of `Cc1ccc(Nc2ncnc3sc4c(c23)CCC(C(=O)O)C4)cc1O` (stereo not shown) [Example 46, 4-[(3-hydroxy-4-methylphenyl)amino]-5,6,7,8tetrahydro[1]benzothieno[2,3-d]pyrimidine-7-carboxylic acid], the IC50 [2] is reported as < 50 µM.
`N#Cc1ccc(N2CCN(C(=O)C3CCc4c(sc5ncnc(Nc6cccc(Br)c6)c45)C3)CC2)cc1` (stereo not shown) [Example 48, 4-[4-({4-[(3-bromophenyl)amino]-5,6,7,8-tetrahydro[1]benzothieno[2,3-d]pyrimidin-7-yl}carbonyl)-1-piperazinyl]benzonitrile] was tested, and the IC50 [1] was < 5 µM and the IC50 [2] was < 50 µM.
In the case of `COc1ccc(N2CCN(C(=O)C3CCc4c(sc5ncnc(Nc6cccc(Br)c6)c45)C3)CC2)cc1` (stereo not shown) [Example 49, N-(3-bromophenyl)-7-{[4-(4-methoxyphenyl)-1-piperazinyl]carbonyl}-5,6,7,8-tetrahydro[1]benzothieno[2,3-d]pyrimidin-4-amine], the IC50 [1] is reported as < 50 µM and the IC50 [2] is reported as < 50 µM.
`CS(=O)(=O)CCNC(=O)C1CCc2c(sc3ncnc(Nc4ccc(F)c(Cl)c4)c23)C1` (stereo not shown) [Example 52, 4-[(3-chloro-4-fluorophenyl)amino]-N-[2-(methylsulfonyl)ethyl]-5,6,7,8-tetrahydro[1]benzothieno[2,3-d]pyrimidine-7-carboxamide] was tested, and the IC50 [1] was < 50 µM and the IC50 [2] was < 50 µM.
`Fc1ccc(Nc2ncnc3sc4c(c23)CCC(CCN2CCOCC2)C4)cc1Cl` (stereo not shown) [Example 54, N-(3-chloro-4-fluorophenyl)-7-[2-(4-morpholinyl)ethyl]-5,6,7,8-tetrahydro[1]benzothieno[2,3-d]pyrimidin-4-amine] was tested, and the IC50 [1] was < 5 µM and the IC50 [2] was < 5 µM.
`CS(=O)(=O)CCNCC1CCc2c(sc3ncnc(Nc4ccc(F)c(Cl)c4)c23)C1` (stereo not shown) [Example 55, N-(3-chloro-4-fluorophenyl)-7-({[2-(methylsulfonyl)ethyl]amino}methyl)-5,6,7,8-tetrahydro[1]benzothieno[2,3-d]pyrimidin-4-amine] was tested, and the IC50 [1] was < 50 µM and the IC50 [2] was < 5 µM.
With `OCCC1CCc2c(sc3ncnc(Nc4ccc(OCc5ccc(F)cc5)c(Cl)c4)c23)C1` (stereo not shown) [Example 155, 2-[4-({3-chloro-4-[(4-fluorobenzyl)oxy]phenyl}amino)-5,6,7,8-tetrahydro[1]benzothieno[2,3-d]pyrimidin-7-yl]ethanol] the IC50 [1] was < 5 µM.
`CS(=O)(=O)OCCC1CCc2c(sc3ncnc(Nc4ccc(OCc5ccc(F)cc5)c(Cl)c4)c23)C1` (stereo not shown) [Example 156, 2-[4-({3-chloro-4-[(4-fluorobenzyl)oxy]phenyl}amino)-5,6,7,8-tetrahydro[1]benzothieno[2,3-d]pyrimidin-7-yl]ethyl methanesulfonate] was tested, and the IC50 [1] was < 5 µM.
